Measured values taken from PMC11157767 (Molecular Cancer, 2024).
Several values for one entry are separate records, joined by “and”; a condition that tells them apart may be missing. Equal entries are not always repeated. Where two headings read alike, the source gives them in different places.

What was measured:
TFG-MET allograft tumors = assay: TFG-MET allograft preclinical trial in CD1 mice, Survival cohort (survival, BLI, body weight); format: in vivo, mouse; settings: Murine allografts
Description: All treatments started 1 week after transplantation. Radio therapy was administered for 6 days, delivering 12 Gy total. Compound treatment was continued for 84 days. […] N = 8 (vehicle arms) or n = 10 (compound-treated arms), respectively. […] First row is depicted in another intensity scale to visualize tumors in all mice. The depicted scale bar indicates the range from 5x10^5-1x10^7 photons/sec/cm^2/sr.
Survival, body weight and tumor burden data from TFG-MET allograft-bearing mice. a,Schematic illustrating the preliminary in vivo study to determine the efficacy of RT alone. b, Survival curve of mice depicted in a. […] Each line represents one mouse. The ends of lines indicate the onset of neurological symptoms and thereby the endpoints.
Bioluminescence signals of in vivo trials.

[1] = pediatric solid tumors, maximum tolerated dose 280 mg/m^2 BID; cited from earlier work
TRIM24-MET-i cells = assay: 3-day dose-response assay, TRIM24-MET-i cells; format: cell-based; settings: Homo sapiens
[2] = tested on: murine TFG-MET tumor cells; assay: cells; settings: Mus musculus
Description: To calculate unbound EC50 and EC90 values, total values were multiplied with unbound drug fractions in culture media (Table 1).

TRIM24-MET-r cells = assay: 3-day dose-response assay, TRIM24-MET-r cells; format: cell-based; settings: Homo sapiens
[3] = tested on: murine TFG-MET tumor cells; settings: 7 days; RT 0Gy - 8Gy
Description: For both compounds 1 µM was used as positive control.
Compound concentrations comprised 10µM and 9 serial 1:3 dilutions in 4 replicates each and radiation doses ranged from 0Gy – 8Gy. […] Tested compound concentrations comprised 10 µM and 9 serial 1:3 dilutions in 4 replicates each. ZIP synergy scores were calculated based on cell numbers according to the CellTiter-Glo Assay by using the synergyfinder tool.

[4] = Brain pharmacokinetics in CD-1 nude mice (NCA); format: in vivo, mouse
Description: (§1) Fig. 2 TFG-MET-driven mouse model and pharmacokinetic profiles of MET inhibitors. a Schematic illustrating the method and utilized vectors to induce CRISPR/Cas9-mediated Trp53 deletion and TFG-MET overexpression following in utero electroporations. b H&E staining and Immunohistochemical analysis of a tumor generated by in utero electroporation, visualized by the HA-tag of TFG-MET. […] Three mice were analyzed per compound and time point. Error bars indicate the standard deviation. Dashed rectangles indicate time windows of radiation in the following preclinical allograft study
(§2) See Methods – Pharmacokinetics section for a description of abbreviations.

RAD51 = assay: Western blot of RAD51 in TRIM24-MET or TFG-MET cells, 24 hours; format: cell-based, human and mouse
Description: Error bars display standard error of mean, statistical significance was determined using t-test analysis. (****;p<0.0001, ***;p<0.001, **;p<0.01, *;p<0.05). […] Each dot represents an individual replicate. Error bars display standard error of the mean. Statistical significance was determined using a One-Way ANOVA followed by Tukey’s multiple comparisons test (*p<0.05, **p<0.01, ***p<0.001, ****p<0.0001). Lysate from lane 10 was excluded due to the different timepoint after RT

[5] = Plasma pharmacokinetics in CD-1 nude mice (NCA); format: in vivo, mouse
Description: as §1, §2

[6] = CD-1 nude, mouse, Brain, NCA estimate
[7] = CD-1 nude, mouse, Plasma, NCA estimate

## C[C@@H](Oc1cc(-c2cnn(C3CCNCC3)c2)cnc1N)c1c(Cl)ccc(F)c1Cl [Crizotinib]
TFG-MET allograft tumors; day 7, drug + RT
  BLI signal, individual mice: 3.20E+07 and 3.90E+07 and 3.50E+08 and 1.10E+08 and 1.40E+07 and 8.30E+05 and 5.70E+06 and 1.70E+07 and 6.90E+05 and 4.00E+06
TFG-MET allograft tumors; day 7, drug alone
  BLI signal, individual mice: 8.40E+06 and 1.40E+07 and 3.90E+08 and 2.00E+06 and 1.50E+07 and 3.90E+06 and 6.00E+06 and 4.10E+06 and 1.20E+06 and 8.20E+06
TFG-MET allograft tumors; day 10, drug + RT
  BLI signal, individual mice: 3.00E+07 and 4.60E+07 and 1.60E+08 and 1.80E+08 and 5.10E+07 and 1.20E+06 and 1.50E+07 and 6.00E+05 and 7.00E+06
TFG-MET allograft tumors; day 10, drug alone
  BLI signal, individual mice: 2.30E+07 and 6.50E+07 and 3.70E+08 and 3.10E+06 and 5.60E+07 and 6.20E+06 and 3.30E+07 and 1.30E+07 and 3.50E+06 and 2.70E+06
TFG-MET allograft tumors; day 14, drug + RT
  BLI signal, individual mice: 1.90E+06 and 9.10E+07 and 9.70E+07 and 7.90E+07 and 7.60E+05 and 1.70E+08 and 5.90E+08 and 6.70E+05 and 3.10E+07
TFG-MET allograft tumors; day 14, drug alone
  BLI signal, individual mice: 5.20E+07 and 1.80E+09 and 3.60E+07 and 3.20E+08 and 6.50E+07 and 1.60E+08 and 1.70E+07 and 1.10E+07 and 2.00E+07
TFG-MET allograft tumors; day 21, drug + RT
  BLI signal, individual mice: 1.00E+05 and 5.60E+06 and 1.60E+07
TFG-MET allograft tumors; day 21, drug alone
  BLI signal, individual mice: 3.40E+07 and 2.10E+08 and 2.60E+08 and 2.60E+07 and 1.40E+08 and 8.10E+07
TFG-MET allograft tumors; day 28, drug + RT
  BLI signal, individual mice: 1.20E+08 and 2.10E+07
TFG-MET allograft tumors; day 28, drug alone
  BLI signal, individual mice: 5.90E+07 and 2.20E+08 and 4.40E+08 and 3.00E+08
TFG-MET allograft tumors; day 35, drug + RT
  BLI signal, individual mice: 1.30E+05 and 1.70E+07
TFG-MET allograft tumors; day 35, drug alone
  BLI signal, individual mice: 1.00E+07 and 8.70E+08 and 6.50E+08
TFG-MET allograft tumors; day 42, drug + RT
  BLI signal, individual mice: 1.30E+05
TFG-MET allograft tumors; day 42, drug alone
  BLI signal, individual mice: 1.00E+07 and 1.20E+09
TFG-MET allograft tumors; day 49, drug alone
  BLI signal, individual mice: 1.90E+06
TFG-MET allograft tumors; day 56, drug + RT
  BLI signal, individual mice: 1.30E+05
TFG-MET allograft tumors; day 56, drug alone
  BLI signal, individual mice: 2.20E+06
TFG-MET allograft tumors; day 63, drug alone
  BLI signal, individual mice: 1.90E+07
TFG-MET allograft tumors; day 70, drug + RT
  BLI signal, individual mice: 1.00E+05
TFG-MET allograft tumors; day 70, drug alone
  BLI signal, individual mice: 2.30E+07
TFG-MET allograft tumors; day 84, drug + RT
  BLI signal, individual mice: 1.26E+05
TFG-MET allograft tumors; day 91, drug alone
  BLI signal, individual mice: 1.06E+05
[1]
  mean steady total plasma AUC: 6,990 hr-ng/mL
TRIM24-MET-i cells; 72 h, read-out: EC50 Total
  EC50: 18.1 nM
TRIM24-MET-i cells; 72 h, read-out: EC90 Total
  EC90: 322 nM
TRIM24-MET-i cells; read-out: EC50 Unbound
  EC50: 11.1 nM
TRIM24-MET-i cells; read-out: EC90 Unbound
  EC90: 198 nM
[2]; read-out: EC50 (nM) Total
  EC50: 124 nM
[2]; read-out: EC50 (nM) Unbound*
  EC50: 76.2 nM
[2]; read-out: EC90 (nM) Total
  EC90: 612 nM
[2]; read-out: EC90 (nM) Unbound*
  EC90: 378 nM
[2]; read-out: in vitro IC50
  IC50: 124 nM
TRIM24-MET-r cells; 72 h, read-out: EC50 Total
  EC50: 151 nM
TRIM24-MET-r cells; 72 h, read-out: EC90 Total
  EC90: 5670 nM
TRIM24-MET-r cells; read-out: EC50 Unbound
  EC50: 93 nM
TRIM24-MET-r cells; read-out: EC90 Unbound
  EC90: 3500 nM
[3]
  combination effect with RT (ZIP synergy model): additive effect with a trend towards synergy
[4]; Brain, NCA estimate
  Clast: 453 ng/mL
  Tlast: 16 h
[4]; CD1 nude mice, estimated with Fu,b
  maximal concentration of unbound drug in the brain: ~ 11 nM
[4]; CD1 nude mice, total drug
  concentration reached in brain tissues: > 1000 nM
[4]; [6]
  AUC(0-t): 6570 ng·h/mL
  Cmax: 453 ng/mL
  Tmax: 4 h
[4]; CD-1 nude, mouse, Brain, NCA estimate, read-out: Kp,last
  Kp: 0.155
RAD51
  RAD51 protein level: downregulation
[5]; CD1 nude mice, post dose, brain and plasma not distinguished
  time of reaching Cmax: 4 h
[5]; CD-1 nude, mouse, plasma, 25 mg/kg, read-out: total plasma AUC
  AUC: 64700 ng·h/mL
[5]; [7]
  AUC(0-inf): 64700 ng·h/mL
  AUC(0-t): 42400 ng·h/mL
  CL/F: 25.8 mL/min/kg
  Cmax: 5040 ng/mL
  Tmax: 1 h
  half-life: 10.3 h
  k el: 1.86e-05 s⁻¹
[5]; CD-1 nude, mouse, Plasma, NCA estimate, read-out: Vz/F
  Vd/F: 23 L/kg
[5]; Plasma, NCA estimate
  Clast: 1670 ng/mL
  Tlast: 16 h
